Experimental data as given in US9809574B2, “Isoindoline or isoquinoline compounds, a process for their preparation and pharmaceutical compositions containing them” (LES LABORATOIRES SERVIER, priority 2013, dated 2017).
Counter-ions that a name gives are not always drawn.

What was measured:
[1] = test system: RS4; 11 leukaemia cell line; test: In vitro cytotoxicity, Microculture Tetrazolium Assay (MTT); assay type: cell-based; conditions: 11 cells exposed for 48 hours
Description: The cytotoxicity studies were carried out on the RS4; 11 leukaemia cell line and on H146 small Cell Lung Carcinoma cell line. The cells are distributed onto microplates and exposed to the test compounds for 48 hours. The cell viability is then quantified by a colorimetric assay, the Microculture Tetrazolium Assay (Cancer Res., 1987, 47, 939-942).

Bcl-2 protein = Bcl-2 protein (histag-Bcl-2, UniProtKB P10415) (Homo sapiens (Human), UniProt P10415); test: Inhibition of Bcl-2 by the fluorescence polarisation technique; assay type: binding; conditions: fluorescence polarisation test; incubation for 2 hours; read-out: IC50 (nM) Bcl-2 FP
Sequence of Bcl-2 protein (P10415 whole entry): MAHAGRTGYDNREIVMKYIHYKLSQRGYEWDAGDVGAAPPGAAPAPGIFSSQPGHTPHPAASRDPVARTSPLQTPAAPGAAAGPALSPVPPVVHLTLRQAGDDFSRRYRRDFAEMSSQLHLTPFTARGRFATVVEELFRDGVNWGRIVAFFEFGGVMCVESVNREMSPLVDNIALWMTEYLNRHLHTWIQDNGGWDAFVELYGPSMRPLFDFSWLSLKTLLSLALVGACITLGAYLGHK
Excerpt: For partial inhibitors, the percentage fluorescence polarisation inhibition for a given concentration of the test compound is indicated.

Row | Compound | IC50 ([1]; Homo sapiens) [nM] | IC50 (Bcl-2 protein) [nM] | IC50 [1] [nM]
1 | Cc1c(C(=O)N(C)c2ccc(O)cc2)cc(-c2cc3c(cc2C(=O)N2Cc4ccccc4C[C@H]2C)CN(C(=O)Cc2ccccc2)CC3)n1C [Example 75, N-(4-Hydroxyphenyl)-N,1,2-trimethyl-5-{7-[(3R)-3-methyl-1,2,3,4-tetrahydroisoquinoline-2-carbonyl]-2-(2-phenylacetyl)-1,2,3,4-tetrahydroisoquinolin-6-yl}-1H-pyrrole-3-carboxamide] | 6.2 | 4 | –
2 | CN(C(=O)c1cc(-c2cc3c(cc2C(=O)N2Cc4ccccc4C[C@H]2CN2CCOCC2)CN(C(=O)Oc2ccc(OC(F)(F)F)cc2)CC3)n2c1CCCC2)c1ccc(O)cc1 [Example 125, 4-(Trifluoromethoxy)phenyl 6-{1-[(4-hydroxyphenyl)(methyl)carbamoyl]-5,6,7,8-tetrahydroindolizin-3-yl}-7-[(3S)-3-(morpholin-4-ylmethyl)-1,2,3,4-tetrahydroisoquinoline-2-carbonyl]-1,2,3,4-tetrahydroisoquinoline-2-carboxylate] | 49 | 8.7 | –
3 | Cc1ccc(OC(=O)N2CCc3cc(-c4cc(C(=O)N(C)c5ccccc5)c(C)n4C)c(C(=O)N4Cc5ccccc5C[C@H]4CN4CCOCC4)cc3C2)cc1 [Example 591, 4-Methylphenyl 6-{1,5-dimethyl-4-[methyl(phenyl)carbamoyl]-1H-pyrrol-2-yl}-7-[(3S)-3-(morpholin-4-ylmethyl)-1,2,3,4-tetrahydroisoquinoline-2-carbonyl]-1,2,3,4-tetrahydroisoquinoline-2-carboxylate] | 7 | 2.5 | –
4 | Cc1c(C(=O)N(C)c2ccc(O)cc2)cc(-c2cc3c(cc2C(=O)N2Cc4ccccc4C[C@H]2C)CN(C(=O)OC2CCC(N(C)C)CC2)CC3)n1C (stereo partly drawn) [Example 802, (1r,4r)-4-(Dimethylamino)cyclohexyl 6-{4-[(4-hydroxyphenyl)(methyl)carbamoyl]-1,5-dimethyl-1H-pyrrol-2-yl}-7-[(3R)-3-methyl-1,2,3,4-tetrahydroisoquinoline-2-carbonyl]-1,2,3,4-tetrahydroisoquinoline-2-carboxylate] | – | 4 | 99
5 | Cc1c(C(=O)N(C)c2ccc(O)cc2)cc(-c2cc3c(cc2C(=O)N2Cc4ccccc4C[C@H]2CN2CCOCC2)CN(C(=O)Oc2ccccc2)CC3)n1C [Example 88, Phenyl 6-{4-[(4-hydroxyphenyl)(methyl)carbamoyl]-1,5-dimethyl-1H-pyrrol-2-yl}-7-[(3S)-3-(morpholin-4-ylmethyl)-1,2,3,4-tetrahydroisoquinoline-2-carbonyl]-1,2,3,4-tetrahydroisoquinoline-2-carboxylate hydrochloride] | 3.9 | 3.5 | –
6 | CC(=O)N1Cc2cc(C(=O)N3Cc4ccccc4C[C@H]3C)c(-c3cc(C(=O)N(C)c4ccc(O)cc4)c(C)n3C)cc2C1 [Example 112, 5-{2-Acetyl-6-[(3R)-3-methyl-1,2,3,4-tetrahydroisoquinoline-2-carbonyl]-2,3-dihydro-1H-isoindol-5-yl}-N-(4-hydroxyphenyl)-N,1,2-trimethyl-1H-pyrrole-3-carboxamide] | 394 | 42 | –
7 | Cc1c(C(=O)N(C)c2ccc(O)cc2)cc(-c2cc3c(cc2C(=O)N2Cc4ccccc4C[C@H]2C)CN(C(=O)COCc2ccccc2)C3)n1C [Example 160, 5-{2-[2-(Benzyloxy)acetyl]-6-[(3R)-3-methyl-1,2,3,4-tetrahydroisoquinoline-2-carbonyl]-2,3-dihydro-1H-isoindol-5-yl}-N-(4-hydroxyphenyl)-N,1,2-trimethyl-1H-pyrrole-3-carboxamide] | 86 | 6.9 | –
8 | C[C@@H]1Cc2ccccc2CN1C(=O)c1cc2c(cc1-c1cc(C(=O)N(C)c3ccc(O)cc3)c3n1CCCC3)CCN(C(=O)OC(C)(C)C)C2 [Example 47, tert-Butyl 6-{1-[(4-hydroxyphenyl)(methyl)carbamoyl]-5,6,7,8-tetrahydroindolizin-3-yl}-7-[(3R)-3-methyl-1,2,3,4-tetrahydroisoquinoline-2-carbonyl]-1,2,3,4-tetrahydroisoquinoline-2-carboxylate] | 45 | 12 | –
9 | CN(C(=O)c1cc(-c2cc3c(cc2C(=O)N2Cc4ccccc4C[C@H]2CN2CCOCC2)CN(C(=O)OC(C)(C)C)C3)n2c1CCCC2)c1ccc(O)cc1 [Example 6, tert-Butyl 5-{1-[(4-hydroxyphenyl)(methyl)carbamoyl]-5,6,7,8-tetrahydroindolizin-3-yl}-6-[(3S)-3-(morpholin-4-ylmethyl)-1,2,3,4-tetrahydroisoquinoline-2-carbonyl]-2,3-dihydro-1H-isoindole-2-carboxylate] | > 1880 | 95 | –
10 | C[C@@H]1Cc2ccccc2CN1C(=O)c1cc2c(cc1-c1cc(C(=O)N(C)c3ccc(O)cc3)c3n1CCCC3)CCN(C(=O)[C@H](C)c1ccccc1)C2 [Example 91, N-(4-Hydroxyphenyl)-N-methyl-3-{7-[(3R)-3-methyl-1,2,3,4-tetrahydroisoquinoline-2-carbonyl]-2-[(2R)-2-phenylpropanoyl]-1,2,3,4-tetrahydroisoquinolin-6-yl}-5,6,7,8-tetrahydroindolizine-1-carboxamide] | 73 | 7 | –
11 | C[C@@H]1Cc2ccccc2CN1C(=O)c1cc2c(cc1-c1cc(C(=O)N(C)c3ccc(O)cc3)c3n1CCCC3)CN(CCC1CCCCC1)C2 [Example 29, 3-[2-(2-Cyclohexylethyl)-6-[(3R)-3-methyl-1,2,3,4-tetrahydroisoquinoline-2-carbonyl]-2,3-dihydro-1H-isoindol-5-yl]-N-(4-hydroxyphenyl)-N-methyl-5,6,7,8-tetrahydroindolizine-1-carboxamide] | > 150 | 28 | –
12 | C[C@@H]1Cc2ccccc2CN1C(=O)c1cc2c(cc1-c1cc(C(=O)N(C)c3ccc(O)cc3)c3n1CCCC3)CN(C(=O)N(C)C(C)(C)C)C2 [Example 81, N-tert-Butyl-5-{1-[(4-hydroxyphenyl)(methyl)carbamoyl]-5,6,7,8-tetrahydroindolizin-3-yl}-N-methyl-6-[(3R)-3-methyl-1,2,3,4-tetrahydroisoquinoline-2-carbonyl]-2,3-dihydro-1H-isoindole-2-carboxamide] | > 150 | 21 | –
13 | CN(C(=O)c1cc(-c2cc3c(cc2C(=O)N2Cc4ccccc4C[C@H]2CN2CCOCC2)CN(C(=O)Oc2ccc(-n4ccnc4)cc2)CC3)n2c1CCCC2)c1ccc(O)cc1 [Example 143, 4-(1H-imidazol-1-yl)phenyl 6-{1-[(4-hydroxyphenyl)(methyl)carbamoyl]-5,6,7,8-tetrahydroindolizin-3-yl}-7-[(3S)-3-(morpholin-4-ylmethyl)-1,2,3,4-tetrahydroisoquinoline-2-carbonyl]-1,2,3,4-tetrahydroisoquinoline-2-carboxylate] | 9.3 | 5.5 | –
14 | CN(C(=O)c1cc(-c2cc3c(cc2C(=O)N2Cc4ccccc4C[C@H]2CN2CCOCC2)CN(C(=O)Cc2ccccc2)C3)n2c1CCCC2)c1ccc(O)cc1 [Example 8, N-(4-Hydroxyphenyl)-N-methyl-3-{6-[(3S)-3-(morpholin-4-ylmethyl)-1,2,3,4-tetrahydroisoquinoline-2-carbonyl]-2-(2-phenylacetyl)-2,3-dihydro-1H-isoindol-5-yl}-5,6,7,8-tetrahydroindolizine-1-carboxamide; hydrochloride salt] | 98 | 7.3 | –
15 | Cc1c(C(=O)N(C)c2ccc(O)cc2)cc(-c2cc3c(cc2C(=O)N2Cc4ccccc4C[C@H]2CN2CCOCC2)CN(C(=O)OC2CCCCC2)CC3)n1C [Example 791, Cyclohexyl 6-{4-[(4-hydroxyphenyl)(methyl)carbamoyl]-1,5-dimethyl-1H-pyrrol-2-yl}-7-[(3S)-3-(morpholin-4-ylmethyl)-1,2,3,4-tetrahydroisoquinoline-2-carbonyl]-1,2,3,4-tetrahydroisoquinoline-2-carboxylate] | 54 | 2.8 | –
16 | C[C@@H]1Cc2ccccc2CN1C(=O)c1cc2c(cc1-c1cc(C(=O)N(C)c3ccc(O)cc3)c3n1CCCC3)CCN(C(=O)NC(C)(C)C)C2 [Example 48, N-tert-Butyl-6-{1-[(4-hydroxyphenyl)(methyl)carbamoyl]-5,6,7,8-tetrahydroindolizin-3-yl}-7-[(3R)-3-methyl-1,2,3,4-tetrahydroisoquinoline-2-carbonyl]-1,2,3,4-tetrahydroisoquinoline-2-carboxamide] | 40 | 8.7 | –
17 | Cc1c(C(=O)N(C)c2ccc(O)cc2)cc(-c2cc3c(cc2C(=O)N2Cc4ccccc4C[C@H]2CN2CCOCC2)CN(C(=O)OC2CCCC2)CC3)n1C [Example 796, Cyclopentyl 6-{4-[(4-hydroxyphenyl)(methyl)carbamoyl]-1,5-dimethyl-1H-pyrrol-2-yl}-7-[(3S)-3-(morpholin-4-ylmethyl)-1,2,3,4-tetrahydroisoquinoline-2-carbonyl]-1,2,3,4-tetrahydroisoquinoline-2-carboxylate] | 48 | 6.2 | –
18 | C[C@@H]1Cc2ccccc2CN1C(=O)c1cc2c(cc1-c1cc(C(=O)N(C)c3ccc(O)cc3)c3n1CCCC3)CCN(C(=O)Cc1ccc(NCCN(C)C)cc1)C2 [Example 108, 3-{2-[2-(4-{[2-(Dimethylamino)ethyl]amino}phenyl)acetyl]-7-[(3R)-3-methyl-1,2,3,4-tetrahydroisoquinoline-2-carbonyl]-1,2,3,4-tetrahydroisoquinolin-6-yl}-N-(4-hydroxyphenyl)-N-methyl-5,6,7,8-tetrahydroindolizine-1-carboxamide hydrochloride] | 15 | 2.7 | –
